Test results from patent US20160262390A1, “FIELD APPLICATION OF SUGARS TO INCREASE CROP YIELD” (Minn-Dak Farmers Cooperative, priority 2015, published 2016).

Experiments:
[1] = test system: sugarbeets; assay: Sugarbeet field trial, Wilkin County, Minnesota (ACH 228 seed); type: in vivo
Experimental: To test the efficacy of using a sugar based fertilizer composition with sugarbeets, a field trial using Crystal® brand ACH 228 sugarbeet seed was conducted in Wilkin County, Minnesota. A total of eleven (11) treatments were conducted. Each treatment was replicated four times arranged in a Randomized Complete Block (RCB) Design in the same field. Each replication consisted of a plot having a width of six (6) rows with twenty two (22) inch row spacing having a row length of twenty five (25) feet. To reduce/eliminate any treatment impacts between adjacent plots, only the four (4) interior rows of each plot were treated and evaluated. With the exception of the treatment program applied to the individual plots, which will be discussed below, conventional commercial growing practices were otherwise followed during the field trials. The individual plots experienced the same growing conditions throughout the season.
The treatment regimen for the sugarbeets included one (1) untreated treatment in which no sugar was applied was used as the control element. One (1) treatment included Sun Energy Foliar Fertilizer (SE) available from Micro Nutrients Online. […] treatments were conducted using GS. SE is available in liquid form and was applied by spraying while GS was supplied in a conventional solid form and applied via broadcast spreading. SE is for foliar application and was applied according to the labeling instructions on post-emergent (Post) sugarbeet plants at the both the 4-Leaf and 8-Leaf stages. GS was applied at a variety of times, both pre-planting (Pre) and on post-emergent sugarbeet plants (Post) at either or both of the 4-Leaf and 8-Leaf stages. When applied during pre-planting (Pre), the GS was spread directly on the soil before spring tillage, lightly worked into the ground and followed by planting of the sugarbeet seed into the treated ground. A summary of the plot treatments are contained in Table 1 below:
Following a conventional growing season, the middle four rows of each plot were harvested and data collected for overall yield (tons of sugarbeets/Acre), sugar per ton (pounds of recoverable sugar/ton of sugarbeets) and sugar per Acre (pounds of recoverable sugar/Acre). Fisher's Exact LSD was the statistical test of choice for mean separation for the individual plots of each treatment. A summary of the sugarbeet harvest data is contained in Table 2 below: […]

[2] = test system: sugarbeets; assay: In-furrow sugar and/or fertilizer application on sugarbeets, Foxhome; type: in vivo, sugarbeet; details: for Recoverable Sugar / Sugarbeets / Yield Increase Compared to Check: in-furrow
Experimental: In addition to testing pre-planting application of sugar, additional in-furrow application of sugar during sugarbeet planting was conducted. This testing was conducted at the Foxhome location and included ten (10) separate treatments. These treatments included one (1) untreated check treatment in which no sugar was applied and constitutes the control element. The treatments included one (1) treatment in which only a conventional fertilizer (liquid ammonium phosphate commonly and hereafter referred to as “10-34-0”) was applied in-furrow. […] Four (4) treatments included the in-furrow application of concentrated raw sugar juice (hereafter “CONCRJ”) at varying rates and/or 10-34-0. Liquid sugar is essentially comprised of sucrose. […] Liquid sugar, concentrated raw juice and 10-34-0 were all mixed and diluted with water in a tank and a conventional sprayer was configured such that the liquid was sprayed so as to have the desired sugar and fertilizer equivalent. For the sugar applied at rates of three gallons per acre, the sugar mixture was equivalent to 25 pounds per acre of sugar. […] In each replication, the liquid was applied into the furrow during planting of the sugarbeet seeds. A summary of the in-furrow sugar beet testing is contained in Table 16 below: […]

[3] = Replication 3: 50 pounds/Acre Pre
[4] = Replication 4: 100 pounds/Acre Pre
[5] = Replication 5: 3 pounds/Acre 4-Leaf Post
[6] = Replication 6: 3 pounds/Acre 8-Leaf Post
[7] = Replication 7: 5 pounds/Acre 4-Leaf Post
[8] = Replication 8: 3 pounds/Acre 4-Leaf + 3 pounds/Acre 8-Leaf Post
[9] = Replication 9: 5 pounds/Acre 4-Leaf + 5 pounds/Acre 8-Leaf Post
[10] = Replication 10: 50 pounds/Acre Pre + 3 pounds/Acre 8-Leaf
[11] = Replication 11: 100 pounds/Acre Pre + 5 pounds/Acre 8-Leaf
[12] = sugar 3 gal/acre + 10-34-0 3 gal/acre
[13] = sugar 3 gal/acre, 10-34-0 0 gal/acre
[14] = sugar 5 gal/acre + 10-34-0 3 gal/acre
[15] = sugar 5 gal/acre, 10-34-0 0 gal/acre

OC[C@H]1O[C@@](CO)(O[C@H]2O[C@H](CO)[C@@H](O)[C@H](O)[C@H]2O)[C@@H](O)[C@@H]1O [GS, sucrose]
Pounds of Recoverable Sugar/Acre [1, 3]: 7598.95 pounds/Acre
Pounds of Recoverable Sugar/Ton of Sugarbeets [1, 3]: 282.03 pounds/ton
Tons of Sugarbeets/Acre [1, 3]: 26.94 tons/Acre
Yield Increase (recoverable sugar/Acre vs check) [1, 3]: 9.32%
Pounds of Recoverable Sugar/Acre [1, 4]: 8051.44 pounds/Acre
Pounds of Recoverable Sugar/Ton of Sugarbeets [1, 4]: 278.54 pounds/ton
Tons of Sugarbeets/Acre [1, 4]: 28.91 tons/Acre
Yield Increase (recoverable sugar/Acre vs check) [1, 4]: 15.83%
Pounds of Recoverable Sugar/Acre [1, 5]: 7021.89 pounds/Acre
Pounds of Recoverable Sugar/Ton of Sugarbeets [1, 5]: 276.83 pounds/ton
Tons of Sugarbeets/Acre [1, 5]: 25.41 tons/Acre
Yield Increase (recoverable sugar/Acre vs check) [1, 5]: 1.02%
Pounds of Recoverable Sugar/Acre [1, 6]: 7279.72 pounds/Acre
Pounds of Recoverable Sugar/Ton of Sugarbeets [1, 6]: 284.34 pounds/ton
Tons of Sugarbeets/Acre [1, 6]: 25.64 tons/Acre
Yield Increase (recoverable sugar/Acre vs check) [1, 6]: 4.73%
Pounds of Recoverable Sugar/Acre [1, 7]: 6712.87 pounds/Acre
Pounds of Recoverable Sugar/Ton of Sugarbeets [1, 7]: 274.69 pounds/ton
Tons of Sugarbeets/Acre [1, 7]: 24.43 tons/Acre
Yield Increase (recoverable sugar/Acre vs check) [1, 7]: −3.43%
Pounds of Recoverable Sugar/Acre [1, 8]: 6125.93 pounds/Acre
Pounds of Recoverable Sugar/Ton of Sugarbeets [1, 8]: 270.05 pounds/ton
Tons of Sugarbeets/Acre [1, 8]: 22.81 tons/Acre
Yield Increase (recoverable sugar/Acre vs check) [1, 8]: −11.87%
Pounds of Recoverable Sugar/Acre [1, 9]: 6957.73 pounds/Acre
Pounds of Recoverable Sugar/Ton of Sugarbeets [1, 9]: 289.83 pounds/ton
Tons of Sugarbeets/Acre [1, 9]: 24.00 tons/Acre
Yield Increase (recoverable sugar/Acre vs check) [1, 9]: 0.10%
Pounds of Recoverable Sugar/Acre [1, 10]: 7250.53 pounds/Acre
Pounds of Recoverable Sugar/Ton of Sugarbeets [1, 10]: 276.34 pounds/ton
Tons of Sugarbeets/Acre [1, 10]: 26.24 tons/Acre
Yield Increase (recoverable sugar/Acre vs check) [1, 10]: 4.31%
Pounds of Recoverable Sugar/Acre [1, 11]: 7963.70 pounds/Acre
Pounds of Recoverable Sugar/Ton of Sugarbeets [1, 11]: 274.29 pounds/ton
Tons of Sugarbeets/Acre [1, 11]: 29.03 tons/Acre
Yield Increase (recoverable sugar/Acre vs check) [1, 11]: 14.57%
yield increase in comparison to the untreated check ([1]; every pre-planting application of GS): ≥ 4%
yield increase as compared to the untreated check ([1]; largest pre-planting applications of GS): ≥ 14%
yield data ([1]; only post-emergent application of GS at 4-Leaf or 8-Leaf stage): inconclusive

OC[C@H]1O[C@@](CO)(O[C@H]2O[C@H](CO)[C@@H](O)[C@H](O)[C@H]2O)[C@@H](O)[C@@H]1O [LIQSUC, sucrose]
recoverable sugar compared to the check treatment and to 10-34-0 only ([2]; every in-furrow application of liquid sucrose): increase in recoverable sugar
recoverable sugar compared to the same amount of liquid sugar with no 10-34-0 ([2]; in-furrow liquid sucrose plus 10-34-0): increase in recoverable sugar
Recoverable Sugar [2, 12]: 6437.113 Pounds/Acred
Sugarbeets [2, 12]: 26.3981 Tons/Acre
Yield Increase Compared to Check [2, 12]: 12.79%
Recoverable Sugar [2, 13]: 5777.0474 Pounds/Acred
Sugarbeets [2, 13]: 23.42 Tons/Acre
Yield Increase Compared to Check [2, 13]: 1.23%
Recoverable Sugar [2, 14]: 6262.2908 Pounds/Acred
Sugarbeets [2, 14]: 25.66 Tons/Acre
Yield Increase Compared to Check [2, 14]: 9.73%
Recoverable Sugar [2, 15]: 5881.91 Pounds/Acred
Sugarbeets [2, 15]: 24.38 Tons/Acre
Yield Increase Compared to Check [2, 15]: 3.06%
